Measured values taken from US20140377340A1, “HLA-DR BINDING PEPTIDES AND THEIR USES” (priority 2007, published 2014).

Tests used:
purified HLA DRB5*0101 = biological target: T1, purified HLA DRB5*0101 (Homo sapiens, UniProt P01903+Q30154); assay: HLA-DR radioligand binding inhibition assay, DRB5*0101; conditions: IC50 nM purified HLA DRB5 *0101, purified HLA DRB5*0101
T1 construct: purified from EBV transformed homozygous cell lines or single MHC allele transfected 721.221, C1R, or fibroblast lines; made in house
Method in brief: (§1)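 First, HLA-DR was purified from lysates on LB3.1 columns. Then 1 μM to 1 nM protein was incubated 2 days with 1-10 nM radiolabeled peptide at pH 4 to 7. Finally, complexes were captured for 3 hours and bound cpm determined.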

purified HLA DRB3*0101 = biological target: T2, purified HLA DRB3*0101 (Homo sapiens, UniProt P01903+P79483); assay: HLA-DR radioligand binding inhibition assay, DRB3*0101; conditions: IC50 nM purified HLA DRB3 *0101, purified HLA DRB3*0101
T2 construct: purified from EBV transformed homozygous cell lines or single MHC allele transfected 721.221, C1R, or fibroblast lines; made in house
Description: (§2) Instead, wells of an opaque white 96-well Optiplate (Packard) are coated with 3 μg (100 μl@ 30 μg/ml) of HLA-specific antibody (Ab) that “capture” complexes of radiolabeled MHC and unlabeled peptide transferred from the molecular binding assay plate in 100 μl of 0.05% NP40/PBS. After a 3-hour incubation period, the supernatant is decanted and scintillation fluid (Microscint 20) added. Captured complexes are then measured on a microplate scintillation and luminescence counter (TopCount NXTTM; Packard).
(§3) HLA-DR purification. Fifteen distinct HLA-DR molecules were used in quantitative assays to measure the binding of peptides to solubilized HLA-DR molecules. […] Briefly, columns of inactivated Sepharose CL4B and Protein A Sepharose were used as pre-columns. HLA-DR molecules were captured by passage of lysates over LB3.1 monoclonal antibody (anti-HLA-DRA) columns. Antibody columns were washed with 10 mM Tris-HCL, pH8.0 with 1% (v/v) NP-40, followed by PBS containing 0.4% (w/v) n-octylglucoside. […] The pH was reduced to 8.0 and the eluates were concentrated by centrifugation in Centriprep 30 concentrators at 2000 rpm (Amicon, Beverly, Mass.).
(§4) Briefly, 1-10 nM of radiolabeled peptide was co-incubated for 2 days at either room temperature or 37° C. with 1 μM to 1 nM purified HLA-DR molecules in the presence of a cocktail of protease inhibitors. Assays were performed at various pH conditions, ranging from pH 4 to pH 7. […] After incubation, the percentage of HLA-DR-bound radioactivity is determined by capturing HLA-DR/peptide complexes on Optiplates (Packard Instruments, Meriden, Conn.) coated with the LB3.1 antibody and determining bound counts per minute using the TopCount microscintillation counter (Packard Instruments). […] Competitor peptides are tested in 2-4 complete, independent experiments, at concentrations ranging from […].

purified HLA DRB1*1201 = biological target: T3, purified HLA DRB1*1201 (Homo sapiens, UniProt P01903+P01911, A100R/A169T/D57E/D86V/F55L/H45Y/K41T/L162R/M171V/P40S/Q125H/Q178H/Q39Y/Q99D/R42G/S66L/T262R/V114A/V67L/W38E/Y59H/Y61H/Y89S); assay: HLA-DR radioligand binding inhibition assay, DRB1*1201
T3 construct: purified from EBV transformed homozygous cell lines or single MHC allele transfected 721.221, C1R, or fibroblast lines; made in house
Description: as §2, §3, §4

purified HLA DRB1*0901 = biological target: T4, purified HLA DRB1*0901 (Homo sapiens, UniProt P01903+P01911, A100R/A103E/D57H/D86V/F55Y/F60I/F76Y/I96F/K127E/L162R/M171V/P40D/Q125H/Q99R/R33Q/R42F/S133A/S66N/T210M/V115G/W38K/Y107V/Y59G/Y89S); assay: HLA-DR radioligand binding inhibition assay, DRB1*0901; conditions: IC50 nM purified HLA DRB1 *0901, purified HLA DRB1*0901
T4 construct: purified from EBV transformed homozygous cell lines or single MHC allele transfected 721.221, C1R, or fibroblast lines; made in house
Description: as §2
HLA-DR purification. Fifteen distinct HLA-DR molecules were used in quantitative assays to measure the binding of peptides to solubilized HLA-DR molecules. […] Briefly, columns of inactivated Sepharose CL4B and Protein A Sepharose were used as pre-columns. HLA-DR molecules were captured by passage of lysates over LB3.1 monoclonal antibody (anti-HLA-DRA) columns. Antibody columns were washed with 10 mM Tris-HCL, pH8.0 with 1% (v/v) NP-40, followed by PBS containing 0.4% (w/v) n-octylglucoside.
Briefly, 1-10 nM of radiolabeled peptide was co-incubated for 2 days at either room temperature or 37° C. with 1 μM to 1 nM purified HLA-DR molecules in the presence of a cocktail of protease inhibitors. Assays were performed at various pH conditions, ranging from pH 4 to pH 7. […] After incubation, the percentage of HLA-DR-bound radioactivity is determined by capturing HLA-DR/peptide complexes on Optiplates (Packard Instruments, Meriden, Conn.) coated with the LB3.1 antibody and determining bound counts per minute using the TopCount microscintillation counter (Packard Instruments).

purified HLA DRB1*0701 = biological target: T5, purified HLA DRB1*0701 (Homo sapiens, UniProt P01903+P01911, A100R/A102G/A103Q/D57E/D86V/E43K/F76Y/K127E/L162R/M171V/P40G/Q125H/Q99D/R33Q/R42Y/R54Q/S133A/S66F/T210M/V115G/Y107V/Y59L/Y89S); assay: HLA-DR radioligand binding inhibition assay, DRB1*0701; conditions: IC50 nM purified HLA DRB1 *0701, purified HLA DRB1*0701
T5 construct: purified from EBV transformed homozygous cell lines or single MHC allele transfected 721.221, C1R, or fibroblast lines; made in house
Method in brief: as §1

purified HLA DRB1*0405 = biological target: T6, purified HLA DRB1*0405 (Homo sapiens, UniProt P01903+P01911, A100R/A169T/D86S/F76Y/I96L/K127E/L162R/M171V/N62H/P40V/Q125Y/R42H/S133A/S149N/S66Y/V115G/V209L/W38E); assay: HLA-DR radioligand binding inhibition assay, DRB1*0405; conditions: IC50 nM purified HLA DRB1 *0405, purified HLA DRB1*0405
T6 construct: purified from EBV transformed homozygous cell lines or single MHC allele transfected 721.221, C1R, or fibroblast lines; made in house
Method in brief: as §1

purified HLA DRB1*0802 = biological target: T7, purified HLA DRB1*0802 (Homo sapiens, UniProt P01903+P01911, A100R/A103L/A169T/F76Y/H45Y/I96F/K41T/L162R/M171V/P40S/Q125H/Q178H/Q39Y/Q99D/R218S/R42G/S66Y/V115G/W38E); assay: HLA-DR radioligand binding inhibition assay, DRB1*0802; conditions: IC50 nM purified HLA DRB1 *0802, purified HLA DRB1*0802
T7 construct: purified from EBV transformed homozygous cell lines or single MHC allele transfected 721.221, C1R, or fibroblast lines; made in house
Description: as §2, §3, §4

purified HLA DRB4*0101 = biological target: T8, purified HLA DRB4*0101 (Homo sapiens, UniProt P01903+P13762, G164S); assay: HLA-DR radioligand binding inhibition assay, DRB4*0101; conditions: IC50 nM purified HLA DRB4 *0101, purified HLA DRB4*0101
T8 construct: purified from EBV transformed homozygous cell lines or single MHC allele transfected 721.221, C1R, or fibroblast lines; made in house
Method in brief: as §1

purified HLA DRB1*1101 = biological target: T9, purified HLA DRB1*1101 (Homo sapiens, UniProt P01903+P01911, A100R/A169T/A87E/I96F/K41T/L162R/M171V/P40S/Q125H/Q178H/Q39Y/Q99D/R42S/S66Y/T262R/V115G/W38E); assay: HLA-DR radioligand binding inhibition assay, DRB1*1101; conditions: IC50 nM purified HLA DRB1 *1101, purified HLA DRB1*1101
T9 construct: purified from EBV transformed homozygous cell lines or single MHC allele transfected 721.221, C1R, or fibroblast lines; made in house
Method in brief: as §1

purified HLA DRB1*1501 = biological target: T10, purified HLA DRB1*1501 (Homo sapiens, UniProt P01903+P01911); assay: HLA-DR radioligand binding inhibition assay, DRB1*1501
T10 construct: purified from EBV transformed homozygous cell lines or single MHC allele transfected 721.221, C1R, or fibroblast lines; made in house
Method in brief: as §1

T9 sequence (P01903 26-254, other chains not shown): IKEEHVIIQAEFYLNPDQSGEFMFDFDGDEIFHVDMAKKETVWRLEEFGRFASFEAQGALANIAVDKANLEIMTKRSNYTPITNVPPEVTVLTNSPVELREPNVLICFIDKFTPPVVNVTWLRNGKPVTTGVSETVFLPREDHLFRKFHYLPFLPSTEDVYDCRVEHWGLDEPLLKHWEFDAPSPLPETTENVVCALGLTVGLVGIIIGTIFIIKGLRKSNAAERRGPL

| Structure (SMILES) | IC50 (purified HLA DRB5*0101) | IC50 (purified HLA DRB3*0101) | IC50 (purified HLA DRB1*1201) | IC50 (purified HLA DRB1*0901) | IC50 (purified HLA DRB1*0701) | IC50 (purified HLA DRB1*0405) | IC50 (purified HLA DRB1*0802) | IC50 (purified HLA DRB4*0101) | IC50 (purified HLA DRB1*1101) | IC50 (purified HLA DRB1*1501) |
| --- | --- | --- | --- | --- | --- | --- | --- | --- | --- | --- |
| CC[C@H](C)[C@H](NC(=O)[C@@H](NC(=O)[C@H](Cc1c[nH]cn1)NC(=O)[C@@H](N)CC(C)C)C(C)C)C(=O)N[C@@H](CCCCN)C(=O)N[C@@H](CO)C(=O)N[C@@H](CC(=O)O)C(=O)N[C@@H](CC(C)C)C(=O)N[C@H](C(=O)N[C@@H](CC(N)=O)C(=O)N[C@@H](CCC(=O)O)C(=O)N[C@@H](CCC(=O)O)C(=O)N[C@@H](C)C(=O)N[C@H](C(=O)NCC(=O)O)[C@@H](C)O)C(C)C [Peptide 9019.0005] | > 20000 nM | > 20000 nM | > 20000 nM | > 20000 nM | 3890 nM | 37 nM | > 20000 nM |  |  |  |
| CC(C)C[C@H](NC(=O)[C@H](Cc1c[nH]cn1)NC(=O)[C@@H](N)CS)C(=O)N[C@@H](Cc1ccccc1)C(=O)N[C@@H](Cc1ccc(O)cc1)C(=O)N[C@@H](CC(N)=O)C(=O)N[C@@H](CCC(=O)O)C(=O)N[C@@H](CCC(N)=O)C(=O)N[C@@H](CCC(N)=O)C(=O)N[C@@H](CCC(=O)O)C(=O)N[C@@H](C)C(=O)N[C@@H](CCCNC(=N)N)C(=O)NCC(=O)N[C@H](C(=O)N[C@@H](Cc1c[nH]cn1)C(=O)O)C(C)C [Peptide 9019.0023] | > 20000 nM |  |  | > 20000 nM | > 20000 nM | > 20000 nM | > 20000 nM | 5310 nM | > 20000 nM | > 20000 nM |
